Results from PubChem BioAssay AID2510 (The Scripps Research Institute Molecular Screening Center, 2010).

Target: Mucolipin-3 (Homo sapiens) (UniProt Q8TDD5)
Test: human mucolipin-3 activators, concentration-response – cell-based, calcium fluorescence, dose response (AID 2510)
Details: TRPML3-expressing cells, agonist mode

Chain of Mucolipin-3 (Homo sapiens) (Q8TDD5 whole entry, looked up): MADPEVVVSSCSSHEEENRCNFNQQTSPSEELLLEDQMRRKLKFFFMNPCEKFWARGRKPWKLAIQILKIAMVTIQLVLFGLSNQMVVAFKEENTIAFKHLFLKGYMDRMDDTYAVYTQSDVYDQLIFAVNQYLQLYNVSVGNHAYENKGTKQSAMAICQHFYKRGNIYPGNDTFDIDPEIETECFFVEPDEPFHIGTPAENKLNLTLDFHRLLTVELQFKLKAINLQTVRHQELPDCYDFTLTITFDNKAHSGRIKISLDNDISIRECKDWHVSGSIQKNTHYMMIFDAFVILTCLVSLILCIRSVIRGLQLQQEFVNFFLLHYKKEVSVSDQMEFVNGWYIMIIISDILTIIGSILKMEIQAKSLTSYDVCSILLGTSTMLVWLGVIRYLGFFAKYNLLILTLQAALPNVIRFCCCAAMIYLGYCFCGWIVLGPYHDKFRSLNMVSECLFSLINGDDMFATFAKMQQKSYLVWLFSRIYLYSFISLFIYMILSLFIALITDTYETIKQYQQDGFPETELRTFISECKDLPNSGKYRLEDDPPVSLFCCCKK

CCOc1ccc(S(=O)(=O)N2CCCCC2)c(C)c1C
EC50: 1800 nM
